Holding throughout (type): biochemical
One assay deals with T1, JAK2 (Homo sapiens, UniProt O60674).
T1 construct: made in house; host or cells: SF9 insect cells (baculovirus)
Kind of assay: JAK2 inhibition (Table 4). The note with it: read-out: JAK2 Ki.

The next assay deals with T2, TYK2 (Homo sapiens, UniProt P29597).
T2 construct: made in house; host or cells: SF9 insect cells (baculovirus)
T2 sequence (P29597 873-1187): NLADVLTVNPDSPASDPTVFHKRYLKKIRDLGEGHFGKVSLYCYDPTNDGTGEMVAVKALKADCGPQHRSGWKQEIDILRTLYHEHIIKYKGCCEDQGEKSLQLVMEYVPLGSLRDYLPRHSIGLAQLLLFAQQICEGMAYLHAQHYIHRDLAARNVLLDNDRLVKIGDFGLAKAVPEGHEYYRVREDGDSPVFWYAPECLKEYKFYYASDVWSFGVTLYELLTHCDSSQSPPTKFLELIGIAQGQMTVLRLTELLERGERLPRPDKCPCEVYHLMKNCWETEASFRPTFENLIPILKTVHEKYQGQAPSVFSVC
Kind of assay: TYK2 inhibition (Table 4).

The next assay concerns the target T3, JAK1 (Homo sapiens, UniProt P23458).
T3 construct: made in house; host or cells: SF9 insect cells (baculovirus)
Description: JAK1 inhibition (Table 4). The following applies: read-out: JAK1 Ki.

The next assay has as its target T4, JAK3 (Homo sapiens, UniProt P52333).
T4 construct: made in house; host or cells: SF9 insect cells (baculovirus)
Kind of assay: JAK3 inhibition (Table 4). The following applies: read-out: JAK3 Ki.

SMILES strings stand for the structures.

T3 sequence (P23458 852-1154): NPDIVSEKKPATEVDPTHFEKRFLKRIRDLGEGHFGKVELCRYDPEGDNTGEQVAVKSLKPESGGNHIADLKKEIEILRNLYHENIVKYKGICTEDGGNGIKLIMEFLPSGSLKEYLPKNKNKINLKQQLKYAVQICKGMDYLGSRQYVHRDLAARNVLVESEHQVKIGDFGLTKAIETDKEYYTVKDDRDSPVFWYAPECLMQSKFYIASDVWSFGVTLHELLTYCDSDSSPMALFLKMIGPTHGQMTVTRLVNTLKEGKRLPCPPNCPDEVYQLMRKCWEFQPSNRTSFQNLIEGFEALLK
T1 sequence (O60674 812-1132): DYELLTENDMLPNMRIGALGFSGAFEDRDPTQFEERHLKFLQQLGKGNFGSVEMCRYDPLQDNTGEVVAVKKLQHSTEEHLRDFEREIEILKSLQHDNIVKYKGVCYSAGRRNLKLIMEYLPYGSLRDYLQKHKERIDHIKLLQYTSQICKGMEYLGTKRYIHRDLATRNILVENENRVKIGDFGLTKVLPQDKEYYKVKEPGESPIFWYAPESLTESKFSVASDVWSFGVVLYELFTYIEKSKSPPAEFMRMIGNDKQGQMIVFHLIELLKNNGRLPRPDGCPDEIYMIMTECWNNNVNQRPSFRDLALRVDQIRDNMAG
T4 sequence (P52333 783-1124): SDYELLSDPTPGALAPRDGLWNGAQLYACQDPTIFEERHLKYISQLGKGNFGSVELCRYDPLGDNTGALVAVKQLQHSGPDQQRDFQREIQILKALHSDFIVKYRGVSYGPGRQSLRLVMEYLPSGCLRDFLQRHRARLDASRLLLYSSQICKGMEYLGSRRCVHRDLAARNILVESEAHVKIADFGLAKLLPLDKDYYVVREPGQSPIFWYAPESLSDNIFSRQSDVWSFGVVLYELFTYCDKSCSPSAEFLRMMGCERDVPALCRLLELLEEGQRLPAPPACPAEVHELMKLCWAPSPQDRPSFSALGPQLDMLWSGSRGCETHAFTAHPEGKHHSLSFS

A word on the Ki: it is a measure of affinity in units of concentration, obtained from inhibition or displacement. As for `C[C@@H](O)c1nc2cnc3[nH]ccc3c2n1[C@@H]1CCCO1` [Example 659, (R)-1-[(S)-1-(Tetrahydro-furan-2-yl)-1,6-dihydro-1,2,3,5,6-tetraaza-as-indacen-2-yl]-ethanol], the Ki on JAK2 worked out at 0.395 µM; on TYK2 it was 0.308 µM; at JAK1 it was 0.0308 µM; at JAK3 it was 0.172 µM.

As to `C[C@@H](O)c1nc2cnc3[nH]ccc3c2n1[C@H]1CCCO1` [Example 660, (R)-1-[(R)-1-(Tetrahydro-furan-2-yl)-1,6-dihydro-1,2,3,5,6-tetraaza-as-indacen-2-yl]-ethanol], the Ki on JAK2 worked out at 1.22 µM; at TYK2, 0.645 µM; at JAK1 it was 0.327 µM; at JAK3, 1.05 µM.

As to `C[C@@H](O)c1nc2cnc3[nH]ccc3c2n1[C@@H]1CCCN(C(=O)CC#N)C1` [Example 661, 3-{(R)-3-[2-((R)-1-Hydroxy-ethyl)-6H-1,2,3,5,6-tetraaza-as-indacen-1-yl]-piperidin-1-yl}-3-oxo-propionitrile], the inhibition constant Ki came out at 0.0663 µM at JAK2, 0.0462 µM on TYK2, 0.00398 µM on JAK1 and 0.0554 µM at JAK3.

With `C[C@H](O)c1nc2cnc3[nH]ccc3c2n1[C@@H]1CCCN(C(=O)CC#N)C1` [Example 662, 3-{(R)-3-[2-((S)-1-Hydroxy-ethyl)-6H-1,2,3,5,6-tetraaza-as-indacen-1-yl]-piperidin-1-yl}-3-oxo-propionitrile], the inhibition constant (Ki) at JAK2 is 0.307 µM; at TYK2, 0.877 µM; at JAK1 it was 0.0262 µM; at JAK3, 0.855 µM.

As for `CC(O)c1nc2cnc3[nH]ccc3c2n1C1CCCN(CCF)C1` [Example 664, (R)-1-{1-[(R)-1-(2-Fluoro-ethyl)-piperidin-3-yl]-1,6-dihydro-1,2,3,5,6-tetraaza-as-indacen-2-yl}-ethanol], the Ki was found to be 0.099 µM on JAK2, 0.0585 µM on TYK2, 0.0638 µM on JAK1 and 0.112 µM on JAK3.

As for `c1cc2c(ncc3nc([C@H]4CCCN4)n([C@H]4CCCOC4)c32)[nH]1` [Example 667, 2-(R)-Pyrrolidin-2-yl-1-(S)-tetrahydro-pyran-3-yl-1,6-dihydro-1,2,3,5,6-tetraaza-as-indacene], the Ki worked out at 0.467 µM on JAK2, 0.519 µM at TYK2, 0.114 µM on JAK1 and 0.895 µM on JAK3.

Regarding `COC(=O)N1CCCC(n2c([C@@H](C)O)nc3cnc4[nH]ccc4c32)C1` (stereo partly drawn) [Example 670, (R)-3-[2-((R)-1-Hydroxy-ethyl)-6H-1,2,3,5,6-tetraaza-as-indacen-1-yl]-piperidine-1-carboxylic acid methyl ester], the Ki on JAK2 was found to be 1.75 µM; on TYK2, 1.52 µM; at JAK1, 0.397 µM; on JAK3, 2.17 µM.

For the compound `OCc1nc2cnc3[nH]ccc3c2n1C1CCCCC1` [Example 675, (1-Cyclohexyl-1,6-dihydro-1,2,3,5,6-tetraaza-as-indacen-2-yl)-methanol], the inhibition constant Ki on JAK2 turned out to be 0.00696 µM; at TYK2 it was 0.00178 µM; at JAK1, 0.00121 µM; at JAK3 it was 0.0114 µM.

In the case of `N#CCC(=O)N1CCCC(n2c(CC3CC3)nc3cnc4[nH]ccc4c32)C1` (stereo not shown) [Example 676, 3-[3-(2-Cyclopropylmethyl-6H-1,2,3,5,6-tetraaza-as-indacen-1-yl)-piperidin-1-yl]-3-oxo-propionitrile], the Ki on JAK2 turned out to be 0.00787 µM; on TYK2, 0.0221 µM; at JAK1, 0.00136 µM; on JAK3, 0.0402 µM.

As to `CC(=O)NCCc1nc2cnc3[nH]ccc3c2n1C1CCCCC1` [Example 677, N-[2-(1-Cyclohexyl-1,6-dihydro-1,2,3,5,6-tetraaza-as-indacen-2-yl)-ethyl]-acetamide], the inhibitory constant (Ki) at JAK2 came to 0.0295 µM; on TYK2, 0.0275 µM; at JAK1, 0.00247 µM; on JAK3 it was 0.0329 µM.
